Test results as given in ChEMBL document CHEMBL2157860, “Optimization of a potent class of arylamide colony-stimulating factor-1 receptor inhibitors leading to anti-inflammatory clinical candidate 4-cyano-N-[2-(1-cyclohexen-1-yl)-4-[1-[(dimethylamino)acetyl]-4-piperidinyl]phenyl]-1H-imidazole-2-carboxamide (JNJ-28312141)” (J Med Chem, 2011).
≈ marks a conversion by molar mass, not a printed value.

Columns and labels:
[1] = Metabolic stability in human liver microsomes assessed as compound remaining after 10 mins; assay type: ADME, Microsome; conditions: read-out: Stability
[2] = Metabolic stability in mouse liver microsomes assessed as compound remaining after 10 mins; assay type: ADME, Microsome; conditions: read-out: Stability
[3] = Cmax in CD1 mouse at 5 mg/kg, po; assay type: ADME, organism-based; set-up: dose 5 mg/kg, route oral; conditions: in vivo
[4] = Solubility of the compound in PBS; assay type: physicochemical
[5] = Half life in CD1 mouse at 5 mg/kg, po; assay type: ADME, organism-based; set-up: dose 5 mg/kg, route oral; conditions: in vivo
[6] = Oral bioavailability in CD1 mouse at 5 mg/kg; assay type: ADME, organism-based; conditions: in vivo
[7] = (§1) Apparent volume of distribution in CD1 mouse at 0.5 mg/kg, iv; assay type: ADME, organism-based; set-up: dose 0.5 mg/kg, route intravenous; conditions: CD1, mouse, in vivo, read-out: Vz
[8] = (§2) Half life in CD1 mouse at 0.5 mg/kg, iv; assay type: ADME, organism-based; set-up: dose 0.5 mg/kg, route intravenous; conditions: CD1, mouse, in vivo
[9] = AUClast in CD1 mouse at 5 mg/kg, po; assay type: ADME, organism-based; set-up: time 0 - last, dose 5 mg/kg, route oral; conditions: plasma
[10] = Clearance in CD1 mouse at 0.5 mg/kg, iv; assay type: ADME, organism-based; set-up: dose 0.5 mg/kg, route intravenous; conditions: in vivo
[11] = Drug uptake in CD1 mouse at 5 mg/kg, po after 4 hrs; assay type: ADME, organism-based; set-up: dose 5 mg/kg, route oral; conditions: in vivo, read-out: Drug uptake
[12] = Tmax in CD1 mouse at 5 mg/kg, po; assay type: ADME, organism-based; set-up: dose 5 mg/kg, route oral; conditions: in vivo
[13] = (§3) Drug uptake in CD1 mouse at 5 mg/kg, po after 8 hrs; assay type: ADME, organism-based; set-up: dose 5 mg/kg, route oral; conditions: CD1, mouse, in vivo, read-out: Drug uptake
[14] = system: Mus musculus; assay: as §1; assay type: ADME, organism-based; set-up: dose 0.5 mg/kg, route intravenous; conditions: mouse, in vivo
[15] = system: Mus musculus; assay: as §2; assay type: ADME, organism-based; set-up: dose 0.5 mg/kg, route intravenous; conditions: mouse, in vivo
[16] = system: Liver; assay: Metabolic stability in mouse liver microsomes assessed as glutathione conjugation at 20 to 40 uM after 1 hr by LC/MS analysis; assay type: ADME, Microsome
[17] = system: Mus musculus; assay: as §3; assay type: ADME, organism-based; set-up: dose 5 mg/kg, route oral; conditions: mouse, in vivo, 8 h, BLD = below limit of detection

Structure (SMILES) | remaining at 10 min [1] [%] | remaining at 10 min [2] [%] | Cmax [3] [ng/mL] | solubility [4] [µM] | half-life [5] [h] | bioavailability [6] [%] | Vd [7] [L/kg] | half-life [8] [h] | AUC(0-t) [9] [ng·h/mL] | clearance [10] [mL/min/kg] | also measured
N#Cc1c[nH]c(C(=O)Nc2ccc(C3CCN(C(=O)CCN4CCOCC4)CC3)cc2C2=CCCCC2)n1 | 57 | 23 | – | – | – | – | – | – | – | – | –
N#Cc1c[nH]c(C(=O)Nc2ccc(C3CCN(C(=O)CN4CCOCC4)CC3)cc2C2=CCCCC2)n1 | 66 | 23 | – | – | – | – | – | – | – | – | –
N#Cc1c[nH]c(C(=O)Nc2ccc(C3CCN(C(=O)c4cccnc4)CC3)cc2C2=CCCCC2)n1 | 56 | 66 | – | – | – | – | – | – | – | – | –
N#Cc1c[nH]c(C(=O)Nc2ccc(C3CCN(C(=O)c4cc[n+]([O-])cc4)CC3)cc2C2=CCCCC2)n1 | 100 | 92 | – | – | – | – | – | – | – | – | –
N#Cc1c[nH]c(C(=O)Nc2ccc(C3CCN(C(=O)Cc4cccnc4)CC3)cc2C2=CCCCC2)n1 | 28 | 21 | – | 10.4 (≈ 5.14 µg/mL) | – | – | – | – | – | – | –
N#Cc1c[nH]c(C(=O)Nc2ccc(C3CCN(C(=O)Cc4ccncc4)CC3)cc2C2=CCCCC2)n1 | 11 | 24 | 118 | 0.39 (≈ 0.193 µg/mL) | 0.23 | 18 | 7.27 | 0.41 | 68 | 205 | –
CS(=O)(=O)CCN1CCC(c2ccc(NC(=O)c3nc(C#N)c[nH]3)c(C3=CCCCC3)c2)CC1 | 94 | 98 | 866 | 4.2 (≈ 2.02 µg/mL) | 1.55 | 88 | 3.84 | 1.44 | 2130 | 30.7 | –
CC1CCN(c2cc(N3CCN(C)CC3)ccc2NC(=O)c2ccc(C#N)o2)CC1 | – | – | 285 | – | 3.1 | 75 | 12.3 | 3 | 1160 | 46 | concentration at 4 h [11]: 183 ng/mL; Tmax [12]: 0.5 h; concentration at 8 h [13]: 64 ng/mL
N#Cc1c[nH]c(C(=O)Nc2ccc(C3CCN(C(=O)Cc4ccccn4)CC3)cc2C2=CCCCC2)n1 | 34 | 37 | – | 1.6 (≈ 0.791 µg/mL) | – | – | – | – | – | – | –
N#Cc1c[nH]c(C(=O)Nc2ccc(C3CCN(CCN4CCOCC4)CC3)cc2C2=CCCCC2)n1 | 77 | 96 | 461 | 25.9 (≈ 12.7 µg/mL) | 2.37 | 101 | – | – | 1550 | – | Vz [14]: 8.99 L/kg; t1/2 [15]: 0.23 h
N#Cc1c[nH]c(C(=O)Nc2ccc(C3CCN(C(CO)CO)CC3)cc2C2=CCCCC2)n1 | 100 | 94 | – | – | – | – | – | – | – | – | –
N#Cc1c[nH]c(C(=O)Nc2ccc(C3CCN(C(=O)c4ccc[n+]([O-])c4)CC3)cc2C2=CCCCC2)n1 | 100 | 89 | – | – | – | – | – | – | – | – | –
N#Cc1c[nH]c(C(=O)Nc2ccc(C3CCNCC3)cc2C2=CCCCC2)n1.O=C(O)C(F)(F)F | 100 | 96 | 50 | 38.8 | 2 | 12 | 32 | 7.16 | 95.2 | 51.7 | Stability [16]: Stable; concentration at 4 h [11]: 7 ng/mL; Tmax [12]: 0.25 h; Drug uptake [17]: BLD
N#CCCN1CCC(c2ccc(NC(=O)c3nc(C#N)c[nH]3)c(C3=CCCCC3)c2)CC1 | 100 | 93 | – | 11.8 (≈ 5.06 µg/mL) | – | – | – | – | – | – | –
Cn1cnc(CC(=O)N2CCC(c3ccc(NC(=O)c4nc(C#N)c[nH]4)c(C4=CCCCC4)c3)CC2)c1 | 82 | 90 | 81 | 36.7 (≈ 18.3 µg/mL) | 0.4 | 13 | 3.85 | 0.54 | 101 | 81.8 | –
N#Cc1c[nH]c(C(=O)Nc2ccc(C3CCN(c4ccccn4)CC3)cc2C2=CCCCC2)n1 | 77 | 77 | – | – | – | – | – | – | – | – | –
N#Cc1c[nH]c(C(=O)Nc2ccc(C3CCN(Cc4ccccn4)CC3)cc2C2=CCCCC2)n1 | 75 | 79 | – | – | – | – | – | – | – | – | –

Now from value to compound, other results behind:

remaining at 10 min [1] [%] | remaining at 10 min [2] [%] | Cmax [3] [ng/mL] | solubility [4] [µM] | half-life [5] [h] | bioavailability [6] [%] | Vd [7] [L/kg] | half-life [8] [h] | AUC(0-t) [9] [ng·h/mL] | clearance [10] [mL/min/kg] | Structure (SMILES) | also measured
94 | 93 | – | – | – | – | – | – | – | – | CC(C)(N)C(=O)N1CCC(c2ccc(NC(=O)c3nc(C#N)c[nH]3)c(C3=CCCCC3)c2)CC1 | –
100 | 86 | 24 | 0.91 (≈ 0.451 µg/mL) | 1.55 | 2.3 | 1.58 | 1.2 | 125 | 23.9 | CS(=O)(=O)CC(=O)N1CCC(c2ccc(NC(=O)c3nc(C#N)c[nH]3)c(C3=CCCCC3)c2)CC1 | –
89 | 100 | – | – | – | – | – | – | – | – | N#Cc1c[nH]c(C(=O)Nc2ccc(C3CCN(C(=O)Cc4c[nH]cn4)CC3)cc2C2=CCCCC2)n1 | –
80 | 61 | 24 | 8.2 (≈ 3.79 µg/mL) | 1.63 | 9.3 | 10.3 | 2.41 | 129 | 49.2 | N#Cc1c[nH]c(C(=O)Nc2ccc(C3CCN(C(=O)NCCO)CC3)cc2C2=CCCCC2)n1 | –
81 | 79 | 55 | 28.6 (≈ 12.4 µg/mL) | 0.88 | 9.8 | 6.43 | 1.39 | 141 | 53.3 | N#Cc1c[nH]c(C(=O)Nc2ccc(C3CCN(CC(N)=O)CC3)cc2C2=CCCCC2)n1 | –
100 | 89 | – | > 40 | – | – | – | – | – | – | N#Cc1c[nH]c(C(=O)Nc2ccc(C3CCN(CCO)CC3)cc2C2=CCCCC2)n1 | –
69 | 60 | – | – | – | – | – | – | – | – | CN(CCO)CC(=O)N1CCC(c2ccc(NC(=O)c3nc(C#N)c[nH]3)c(C3=CCCCC3)c2)CC1 | –
78 | 70 | – | – | – | – | – | – | – | – | N#Cc1c[nH]c(C(=O)Nc2ccc(C3CCN(C(N)=O)CC3)cc2C2=CCCCC2)n1 | –
87 | 81 | 296 | 37.3 (≈ 17.2 µg/mL) | 2.33 | 83 | 7.11 | 1.36 | 1020 | 60.6 | CN(C)CC(=O)N1CCC(c2ccc(NC(=O)c3nc(C#N)c[nH]3)c(C3=CCCCC3)c2)CC1 | –
89 | 100 | – | – | – | – | – | – | – | – | N#Cc1c[nH]c(C(=O)Nc2ccc(C3CCN(C(=O)[C@H](O)CO)CC3)cc2C2=CCCCC2)n1 | –
67 | 79 | – | – | – | – | – | – | – | – | N#Cc1c[nH]c(C(=O)Nc2ccc(C3CCN(C(=O)CNCCO)CC3)cc2C2=CCCCC2)n1 | –
98 | 70 | – | – | – | – | – | – | – | – | N#Cc1c[nH]c(C(=O)Nc2ccc(C3CCN(CC(=O)O)CC3)cc2C2=CCCCC2)n1 | –
95 | 86 | 209 | 26.1 (≈ 10.9 µg/mL) | 1.88 | 15 | 2.8 | 1.2 | 454 | 27 | CC(=O)N1CCC(c2ccc(NC(=O)c3nc(C#N)c[nH]3)c(C3=CCCCC3)c2)CC1 | Stability [16]: Stable; concentration at 4 h [11]: 54 ng/mL; Tmax [12]: 0.5 h; concentration at 8 h [13]: 9 ng/mL
